Measured values published in patent publication US9073879B2, “Oxazole derivatives useful as modulators of FAAH” (MERCK SHARP & DOHME CORP., priority 2010, dated 2015).

Assays:
[1] = biological target: T1, human FAAH (Homo sapiens, UniProt O00519); experiment: FAAH whole cell assay (human Whole cell, FAAH_CHO, AAMCA substrate); format: cell-based; conditions: CHO cells expressing human FAAH, whole cell format; read-out: human cell_IC50
T1 construct: The full length FAAH was subcloned into the mammalian expression vector, pcDEF.neo, using XbaI and EcoRI restriction sites; expressed in transfected cells
T1 sequence (O00519 1-579): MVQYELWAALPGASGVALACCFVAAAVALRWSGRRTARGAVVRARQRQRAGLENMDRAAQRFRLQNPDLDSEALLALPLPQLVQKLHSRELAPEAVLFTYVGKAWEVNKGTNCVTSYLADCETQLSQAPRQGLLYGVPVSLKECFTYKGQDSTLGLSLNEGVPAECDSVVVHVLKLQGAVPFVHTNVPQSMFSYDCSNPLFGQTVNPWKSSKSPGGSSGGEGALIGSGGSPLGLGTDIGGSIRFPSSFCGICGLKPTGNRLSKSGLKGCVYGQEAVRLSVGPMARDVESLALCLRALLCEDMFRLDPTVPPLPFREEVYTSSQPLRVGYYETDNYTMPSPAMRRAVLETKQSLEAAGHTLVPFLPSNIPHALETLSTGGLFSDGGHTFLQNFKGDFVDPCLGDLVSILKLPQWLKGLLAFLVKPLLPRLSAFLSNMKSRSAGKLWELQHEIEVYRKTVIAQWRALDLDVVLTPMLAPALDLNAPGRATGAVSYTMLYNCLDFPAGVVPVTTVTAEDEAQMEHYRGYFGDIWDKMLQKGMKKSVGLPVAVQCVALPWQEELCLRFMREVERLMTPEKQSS
Source text: (§1) To assist in assay development stable cell lines for human, murine and rat full length FAAH were developed. Human FAAH cDNA (Accession No: NM_001441.1) was purchased from Origene (Rockville, Md.). The full length FAAH was subcloned into the mammalian expression vector, pcDEF.neo, using XbaI and EcoRI restriction sites and used for stable cell line generation.
Murine (accession number NM_010173) and Rat FAAH (accession number NM_024132) was amplified by reverse transcriptase polymerase chain reaction (RT-PCR) from brain cDNA (BD Biosciences, San Jose, Calif.) using primers 1 and 2 or primers 1 and 3 respectively (see Table). The resulting PCR product was ligated into pCR4 TOPO and DNA sequence confirmed. The full length murine FAAH was subcloned into the mammalian expression vector, pcDEFneo using either EcoRI (murine) or KpnI and EcoRI (rat) restriction sites. Chinese hamster ovary cells (CHO) were transfected following manufacturers protocol (AMAXA). Forty eight hours post transfection, cells were trypsinized and transferred to 96 well plates in Iscove's DMEM media supplemented with 2 mM Glutamine, 10% fetal calf serum, 1 mg/ml geneticin and HT Supplement (0.1 mM sodium hypoxanthine, 0.016 mM thymidine) in order to isolate single clones. Following selection in geneticin, individual clones were selected and FAAH activity was assessed using a whole cell fluorescent anandamide assay, modified from Ramarao et al (2005). Following removal of tissue culture media cells were dislodged following addition of Cellstripper (Mediatech, Inc. Manassas, Va.) and transferred to 96 well black clear bottom assay plate, centrifuged at 1,000 rpm for 3 mins and media removed and replaced with assay buffer (50 mM Tris pH8.0, 1 mM EDTA, 0.1% fatty acid free BSA). The reaction was initiated by addition of fluorescent substrate, AMC Arachidonoyl Amide (Cayman Chemical, Ann Arbor, Mich.) to 1 μM and reaction allowed to proceed for 2 hours at room temperature. Release of fluorescence was monitored in a CytoFluor Multiplate Reader. Cells expressing the highest amount of FAAH activity were selected for study with FAAH inhibitors.
(§2) Assays are performed on either cell lysate or microsome fractions prepared as described or in whole cell format employing either the fluorescent substrate AAMCA (Cayman chemical, Ann Arbor, Mich.) or ^3H-anandamide ([ETHANOLAMINE-1-3H] American Radiolabeled Chemicals; 1 mCi/ml). The cell lysate or microsome assay is performed in black PerkinElmer OptiPlates-384F by adding FAAH_CHO (whole cell (shown as human Whole cell or Human WC), cell lysate (shown as human lysate of human LY) or microsome) in assay buffer (50 mM Phosphate, pH 8.0, 1 mM EDTA, 200 mM KCl, 0.2% glycerol, 0.1% fatty acid free BSA) to each well, followed by either DMSO or compound and allowed to incubate at 22-25° C. for fifteen minutes. AAMCA substrate was used to achieve a final concentration of 1 μM and reaction allowed to proceed at room temperature for 1-3 hours. Fluorescent release as a measure of FAAH activity was monitored by reading the plate in an Envision plate Reader (Ex: 360/40 nM; Em: 460/40 nM). Whole cell assay is conducted with cells harvested after rinsing tissue culture flasks three times with Ca^++Mg^++ free PBS, incubating for 10 min in Enzyme free dissociation media and centrifuging for 5 minutes at 1,000 rpm in table top centrifuge. Cells are resuspended in assay buffer at desired cell number in (4×10^4 cells/assay in 96-well format; 1×10^4 cells/assay in 384-well format) and assayed as described.

[2] = biological target: T1, human FAAH; experiment: FAAH cell lysate assay (human lysate, FAAH_CHO, AAMCA substrate); format: biochemical; conditions: lysate of CHO cells expressing human FAAH; read-out: human lysate_IC50
Source text: as §1
CHO cells expressing FAAH were used to prepare either crude cell lysate or microsome fractions. To harvest cells, tissue culture media was decanted, the monolayer washed three times with Ca^++Mg^++ free PBS and cells recovered after 15 mm in enzyme free dissociation media (Millipore Corp, Billerica, Mass.). Cells were collected by centrifuging at 2000 rpm for 15 min. and the cell pellet re-suspended with 50 mM HEPES (pH 7.4) containing 1 mM EDTA and the protease inhibitors aprotinin (1 mg/ml) and leupeptin (100 μM). The suspension was sonicated at 4° C. and the cell lysate recovered after centrifuging at 12,000×g (14,600 rpm, SS34 rotor) for 20 min at 4° C. to form a crude pellet of cell debris, nuclei, peroxisomes, lysosomes, and mitochondria; the supernatant or cell lysate was used for FAAH enzyme assay. In some cases, microsomes fractions enriched in FAAH were prepared by centrifuging the cell lysate further at 27,000 rpm (100,000×g) in SW28 rotor for 50 minutes at 4° C. The pellet containing FAAH-enriched microsomes was re-suspend in 50 mM HEPES, (pH 7.4) 1 mM EDTA, and any remaining DNA sheared by passage of material through a 23 gauge needle and aliquots of enzyme were store at −80° C. prior to use.
(American Radiolabeled Chemicals; 1 mCi/ml) with FAAH (Life Sciences (1995), 56, 1999-2005 and Journal of Pharmacology and Experimented Therapeutics (1997), 283, 729-734), Analytical. Biochemistry (2003), 318:270-5. In addition, routine assays were performed monitoring hydrolysis of araehidonyl-7-amino-4-methylcoumarin amide (AAMCA) by following increase in fluorescence upon release of 7-amino 4-methyl coumarin (λEX=355 nm, (λEM=460 nm). Analytical. Biochemistry (2005). 343:143-51
as §2

Compound | IC50 [1] [nM] | IC50 [2] [nM]
COC(=O)c1ccc(OCc2nc(-c3ccc(F)cc3)oc2Sc2ccc(Cl)cn2)cc1 [Example B2.11, Methyl-4-({5-[(5-chloropyridin-2-yl)sulfanyl]-2-(4-fluorophenyl)-1,3-oxazol-4-yl}methoxy)benzoate] | 13 | 2
O=C(O)c1ccc(OCc2nc(-c3ccc(F)cc3)oc2Sc2ccc(Cl)cn2)cc1 [Example B2.11.1, 4-({5-[(5-chloropyridin-2-yl)sulfanyl]-2-(4-fluorophenyl)-1,3-oxazol-4-yl}methoxy)benzoic acid] | 253 | 59
CCNC(=O)c1ccc(OCc2nc(-c3ccc(F)cc3)oc2Sc2ccc(Cl)cn2)cc1 [Example B2.11.2, 4-({5-[(5-chloropyridin-2-yl)sulfanyl]-2-(4-fluorophenyl)-1,3-oxazol-4-yl}methoxy)-N-ethylbenzamide] | 14 | 3
CN(C)C(=O)c1ccc(OCc2nc(-c3ccc(F)cc3)oc2Sc2ccc(Cl)cn2)cc1 [Example B2.11.3, 4-({5-[(5-chloropyridin-2-yl)sulfanyl]-2-(4-fluorophenyl)-1,3-oxazol-4-yl}methoxy)-N,N-dimethylbenzamide] | 1450 | 149
CNC(=O)c1ccc(OCc2nc(-c3ccc(F)cc3)oc2Sc2ccc(Cl)cn2)cc1 [Example B2.11.4, 4-({5-[(5-chloropyridin-2-yl)sulfanyl]-2-(4-fluorophenyl)-1,3-oxazol-4-yl}methoxy)-N-methylbenzamide] | 5 | 3
O=C(NCC(F)(F)F)c1ccc(OCc2nc(-c3ccc(F)cc3)oc2Sc2ccc(Cl)cn2)cc1 [Example B2.11.5, 4-({5-[(5-chloropyridin-2-yl)sulfanyl]-2-(4-fluorophenyl)-1,3-oxazol-4-yl}methoxy)-N-(2,2,2-trifluoroethyl)benzamide] | 22 | 5
Cn1ncnc1COCc1nc(-c2ccc(F)cc2)oc1Sc1ccc(Cl)cn1 [Example B2.12, 5-chloro-2-{[2-(4-fluorophenyl)-4-{[(1-methyl-1H-1,2,4-triazol-5-yl)methoxy]methyl}-1,3-oxazol-5-yl]sulfanyl}pyridine] | 2150 | 807
Fc1ccc(-c2nc(COC3CCNCC3)c(Sc3ccc(Cl)cn3)o2)cc1 [Example B2.14, 5-chloro-2-({2-(4-fluorophenyl)-4-[(piperidin-4-yloxy)methyl]-1,3-oxazol-5-yl}sulfanyl)pyridine] | 3360 | 902
Fc1ccc(-c2nc(COC3CCOCC3)c(Sc3ccc(Cl)cn3)o2)cc1 [Example B2.15, 5-chloro-2-({2-(4-fluorophenyl)-4-[(tetrahydro-2H-pyran-4-yloxy)methyl]-1,3-oxazol-5-yl}sulfanyl)pyridine] | 343 | 88
CCNC(=O)c1ccc(OCc2nc(-c3ccc(F)cc3)oc2Sc2ccc(Cl)cn2)nc1 [Example B2.16, 6-({5-[(5-chloropyridin-2-yl)sulfanyl]-2-(4-fluorophenyl)-1,3-oxazol-4-yl}methoxy)-N-ethylpyridine-3-carboxamide] | 10 | 4
COC(=O)c1ccc(NCc2nc(-c3ccc(F)cc3)oc2Sc2ccc(Cl)cn2)cc1 [Example B5.1, methyl 4-[({5-[(5-chloropyridin-2-yl)sulfanyl]-2-(4-fluorophenyl)-1,3-oxazol-4-yl}methyl)amino]benzoate] | 18 | 3
CCNC(=O)c1ccc(NCc2nc(-c3ccc(F)cc3)oc2Sc2ccc(Cl)cn2)cc1 [Example B5.4, 4-[({5-[(5-chloropyridin-2-yl)sulfanyl]-2-(4-fluorophenyl)-1,3-oxazol-4-yl}methyl)amino]-N-ethylbenzamide] | 8 | 3
Fc1ccc(-c2nc(CNc3ccc4[nH]ncc4c3)c(Sc3ccc(Cl)cn3)o2)cc1 [Example B5.6, N-({5-[(5-chloropyridin-2-yl)sulfanyl]-2-(4-fluorophenyl)-1,3-oxazol-4-yl}methyl)-1H-indazol-5-amine] | 38 | 22
CCOC(=O)c1ccc(NCc2nc(-c3ccc(F)cc3)oc2Sc2ccc(Cl)cn2)nc1 [Example B5.7, ethyl 6-[({5-[(5-chloropyridin-2-yl)sulfanyl]-2-(4-fluorophenyl)-1,3-oxazol-4-yl}methyl)amino]pyridine-3-carboxylate] | 24 | 6
CCNC(=O)c1ccc(NCc2nc(-c3ccc(F)cc3)oc2Sc2ccc(Cl)cn2)nc1 [Example B5.8, 6-[({5-[(5-chloropyridin-2-yl)sulfanyl]-2-(4-fluorophenyl)-1,3-oxazol-4-yl}methyl)amino]-N-ethylpyridine-3-carboxamide] | 42 | 17
O[C@H]1CC[C@H](NCc2nc(-c3ccc(F)cc3)oc2Sc2ccc(Cl)cn2)CC1 [Example B5.9, trans-4-[({5-[(5-chloropyridin-2-yl)sulfanyl]-2-(4-fluorophenyl)-1,3-oxazol-4-yl}methyl)amino] cyclohexanol] | 139 | 45
COC(=O)[C@H]1CC[C@H](NCc2nc(-c3ccc(F)cc3)oc2Sc2ccc(Cl)cn2)CC1 [Example B5.10, methyl trans-4-{({5-[(5-chloropyridin-2-yl)sulfanyl]-2-(4-fluorophenyl)-1,3-oxazol-4-yl}methyl)amino] cyclohexanecarboxylate] | 31 | 12
